Measurements published in publication PMC6240063, “An improved genome assembly for Larimichthys crocea reveals hepcidin gene expansion with diversified regulation and function” (Communications Biology, 2018).
Ends that are not written are not given here.

Legend:
[1] = test system: Aeromonas hydrophila; assay: Minimum inhibitory concentration, liquid growth inhibition assay; format: cell-based; conditions: gram-negative, lowest concentration giving 100% decrease in optical density, peptide in PBS pH 7.4
Excerpt: (§1) The mature peptides of LcHamp1 (HAMP1: […]), LcHamp2-1/4 (HAMP2-1/4: […]), LcHamp2-2 (HAMP2-2: […]), LcHamp2-3 (HAMP2-3: GSPARCRFCCR CCPGMRGCGICCRF), and LcHamp2-5 (HAMP2-5: […]) were synthesized, oxidized, and purified by GL Biochem (Shanghai) Ltd. (Shanghai, China). Purity of the synthesized peptides was >/95%. The synthetic peptides were reconstituted in phosphate buffered saline (PBS; pH 7.4). We tested the antimicrobial activity of synthesized peptides against the five gram-negative bacteria A. hydrophila, E. coli, V. alginolyticus, V. harvryi, and V. parahemolyticus, and three gram-positive bacteria B. subtilis, B. amyloliquefaciens, and S. aureus using liquid growth inhibition assays. The minimum inhibitory concentration was considered the lowest concentration that induced a 100% decrease in the optical density of the bacterial suspension.

[2] = test system: Bacillus amyloliquefaciens; assay: as above; format: cell-based; conditions: gram-positive, lowest concentration giving 100% decrease in optical density, peptide in PBS pH 7.4
Excerpt: as §1

[3] = test system: Bacillus subtilis; assay: as above; format: cell-based; conditions: gram-positive, lowest concentration giving 100% decrease in optical density, peptide in PBS pH 7.4
Excerpt: as §1

[4] = test system: Escherichia coli; assay: as above; format: cell-based; conditions: gram-negative, lowest concentration giving 100% decrease in optical density, peptide in PBS pH 7.4
Excerpt: as §1

[5] = test system: Staphylococcus aureus; assay: as above; format: cell-based; conditions: gram-positive, lowest concentration giving 100% decrease in optical density, peptide in PBS pH 7.4
Excerpt: as §1

[6] = test system: Vibrio alginolyticus; assay: as above; format: cell-based; conditions: gram-negative, lowest concentration giving 100% decrease in optical density, peptide in PBS pH 7.4
Excerpt: as §1

[7] = test system: Vibrio harveyi; assay: as above; format: cell-based; conditions: gram-negative, lowest concentration giving 100% decrease in optical density, peptide in PBS pH 7.4
Excerpt: as §1

[8] = test system: Vibrio parahaemloyticus; assay: as above; format: cell-based; conditions: gram-negative, lowest concentration giving 100% decrease in optical density, peptide in PBS pH 7.4
Excerpt: as §1

[9] = test system: Singapore grouper iridovirus (SGIV); assay: Antiviral activity in SGIV-infected grouper spleen cells; format: cell-based; conditions: grouper spleen cells pretreated 1 h with 50 µg/mL peptide, SGIV at MOI 2; cytopathic effect, ORF072 and ORF086 expression (real-time PCR), viral titer TCID50; three independent experiments
Protocol: The antiviral activity of synthetic L. crocea hepcidins was tested in grouper spleen cells, in which a viral infection model has already been established. Grouper spleen cells were seeded onto 6-well plates (Thermo Fisher Scientific, USA) for 18 h. The grouper spleen cells were pretreated for 1 h with each synthetic Hamp peptide at a final concentration of 50 µg/mL or with PBS (as a control). After pretreatment, the cells were infected with SGIV at a multiplicity of infection of 2. At 24 h post infection, cytopathic effects in the grouper spleen cells were observed microscopically (Leica Microsystems, Germany). The expression levels of two genes encoding SGIV envelope proteins (ORF072 and ORF086) were measured with real-time PCR. E. coioides β-actin (Ecβ-actin) was amplified as an internal control. The expression level of ORF072 or ORF086 was normalized to Ecβ-actin using the 2^–ΔΔCT method. Moreover, supernatants and infected cell lysates were collected to determine the viral titer 50% tissue culture infectious dose[50]. All data were obtained from three independent experiments with each performed in triplicate.

[10] = test system: five gram-negative bacteria and three gram-positive bacteria; assay: Minimum inhibitory concentration across all tested bacteria; format: cell-based; conditions: all eight tested bacteria (five gram-negative, three gram-positive); liquid growth inhibition; no antibacterial activity at highest concentration given as >
Excerpt: as §1

[11] = test system: macrophages from L. crocea head kidney; assay: Intracellular iron in macrophages; format: cell-based, Larimichthys crocea; conditions: 100 ng/mL peptide, 2 h, ICP-MS, versus PBS control, P < 0.05, three independent experiments
Protocol: Six groups of macrophages (1 × 10^6 cells per well) were seeded onto 6-well plates for 18 h. To each of five of the groups, we added one synthetic hepcidin peptide from L. crocea, with a final concentration of 100 ng/mL. The sixth group (control) was treated with PBS. After 2 h incubation, we measured the intracellular iron concentration of macrophages with Inductively Coupled Plasma Mass Spectrometry. The fold change was expressed as the intracellular iron concentration in macrophages treated with synthetic hepcidin peptides versus the intracellular iron concentration in the control macrophages.

Sequence	MIC [1]	MIC [2]	MIC [3]	MIC [4]	MIC [5]	MIC [6]	MIC [7]	MIC [8]	antiviral activity against SGIV infection [9]	minimum inhibitory concentrations for the bacterial species tested [10]	intracellular iron content of macrophages (regulatory effect on iron metabolism) [11]
GSPARCRFCCR CCPGMRGCGICCRF (disulfide) (disulfide (positions not given here)) [HAMP2-3, synthetic, oxidized mature peptide of Larimichthys crocea hepcidin LcHamp2-3]	16 µM	8 µM	4 µM	16 µM	4 µM	16 µM	16 µM	16 µM	exhibited antiviral activity		
GSPARCRFCCRCCPRMRGCGICCRF (disulfide) (disulfide (positions not given here)) [HAMP2-5, synthetic, oxidized mature peptide of Larimichthys crocea hepcidin LcHamp2-5]	1 µM	1 µM	0.25 µM	0.5 µM	0.5 µM	0.25 µM	0.5 µM	0.5 µM	no identifiable antiviral activity		
QSHISLCRYCCNCCKNKGCGYCCRF (disulfide (positions not given here)) [HAMP1, synthetic, oxidized mature peptide of Larimichthys crocea hepcidin LcHamp1]									no identifiable antiviral activity	> 300 µM	increases in iron content
SSAAKCQFCCRCCPDMIGCGICCRF (disulfide (positions not given here)) [HAMP2-1/4]									exhibited antiviral activity	> 300 µM	increases in iron content
SSAAKCQFCCRCCPRMSGCGVCCRF (disulfide (positions not given here)) [HAMP2-2, synthetic, oxidized mature peptide of Larimichthys crocea hepcidin LcHamp2-2]									no identifiable antiviral activity	> 300 µM	no antibacterial activity, antiviral activity or regulatory effect on iron metabolism
